Consider 2 compounds from US11174235B2, “Carboxy alkyl-ester anti-agglomerants for the control of natural gas hydrates” (ChampionX USA Inc., priority 2018, dated 2021).

The assay in a line: Sapphire rocking cell anti-agglomerant test. Conditions: dose needed for a pass ranking. On the procedure:
A Sapphire Rocking Cell RCS is commercially available from PSL Systemtechnik in Germany. The Sapphire Rocking Cell is a laboratory instrument used to test the performance of low dosage hydrate inhibitors. The compounds were evaluated based on their ability to effectively minimize the size of gas hydrate agglomerate particles and disperse those particles into the hydrocarbon phase. Chemical performance was evaluated by determining the maximum treatable water cut (water to oil ratio) and the minimum chemical dosage to register a pass in the rocking cell test.
A rocking cell has two parts, a manifold and a cell body. The manifold is made up of stainless steel fittings that are welded together. It has three stems. An inlet stem is used to charge gas into the cell. An outlet stem is used to release the gas out of the cell. The third stem connects to a transducer, which measures the pressure inside of the cell. The cell body has three layers. The outer layer is a polycarbonate tube, which has a thickness of 0.7 cm. The middle layer is made of stainless steel metal and is connected to the manifold. The inner layer is a high-pressure sapphire tube, which has an outer diameter of 2.8 cm, inner diameter of 1.85 cm, and length of 5 cm. This sapphire tube can handle up to 3000 psi. A stainless steel ball which has a diameter of 1.6 cm is located inside the sapphire tube to induce turbulence and mix fluids during the rocking process.
Test fluids usually contain three components. For the anti-agglomerate test, 7.2 mL of warm crude oil was first injected into the cell. Next, a solution of 30,000 total dissolved solids (TDS) ([…]) of NaCl synthetic brine was injected into the cell to make a 40% water cut mixture. The anti-agglomerate test compound was the final component injected into the cell. The dosage of the test compound was based on the volume of aqueous phase. The initial temperature was set to 21° C. Observations were made every two to three hours, before the rocking was stopped, and also immediately after the restart.
Each cell was charged with Green Canyon gas and pressurized up to 2500 psi. All cells rocked for at least 1.5 to 2 hours until fluid was saturated and pressure stabilized. The rocking was ceased and the tank temperature was reduced to the set point of 4° C. over approximately 8 hours. The cells were then reboosted to a pressure of 2500 psi and remained static for 24 hours. Rocking was restarted for 2 hours with frequent observations to rank each cell with a ranked set of pass/fail criterion. Pressure and tank temperature data was recorded during this time.
The pass/fail criteria are based on the ability of the ball in the rocking cell to move within the sapphire tube. […] In contrast, the anti-agglomerant fails if the ball's movement is obstructed or completely stopped by the formation of gas hydrate agglomerates. The anti-agglomerate's performance is borderline when there are observable gas hydrate agglomerates and at least some of the agglomerates are stuck to the walls of the sapphire tube; when these agglomerates are present and the movement of the ball is not restricted, the anti-agglomerant ranking is a borderline pass.

Regarding `CCCCN(CCCC)CCCN(CCC(=O)O)C(CC(=O)O)C(=O)OCCCCCCCCCCC(C)C` (stereo not drawn) [Reaction 24], the “Minimum Effective Dose (MED)” value reads like this: (Oil B (25% w/c)) 2.0 vol. %; (Oil C (35% w/c)) 3.0 vol. %; (Oil D (25% w/c)) 2.0 vol. %.

As to `CCCCCCCCCCCCOC(=O)C(CC(=O)O)NCCCN1CCCCCC1` (stereo not drawn) [Reaction 26], the “Minimum Effective Dose (MED)” value runs as follows: (Oil B (25% w/c)) 2.0 vol. %; (Oil C (35% w/c)) above 3.0 vol. %; (Oil D (25% w/c)) 2.0 vol. %.
